In EP3831940A1, “SMALL MOLECULE INHIBITORS OF CRISPR-CAS ASSOCIATED ACTIVITY” (Danmarks Tekniske Universitet, priority 2019, dated 2021):

Target: T1, spCas9:gRNA complex (Streptococcus pyogenes serotype M1, UniProt Q99ZW2)
T1 construct: purchased New England Biolabs
Experiment: in vitro DNA cleavage assay (agarose gel)
Format: biochemical
Description: The in vitro DNA cleavage assay was carried out as described by (Pawluk, N et al., 2016) with the following modifications. SpyCas9 (New England Biolabs) (5nM) was incubated with candidate compound (50∼500µM) for 15 min at 37°C in Cas9 nuclease buffer (New England Biolabs). Alt-R crRNA:tracrRNA (Integrated DNA Technologies) (6nM) was added later and incubated again for 15min at 37°C. Finally, target dsDNA (1nM) was added and incubated for 10 min at 37°C for the cleavage. The reaction was stopped by adding Proteinase K. The cleaved and un-cleaved fraction of target dsDNA were visualized after separation on a 1% agarose gel.
Control assays were performed in parallel, where the candidate compound was substituted with 5µM AcrIIA2, as positive control; either 5µM GFP protein or no protein (DMSO) as negative control; and phenolic Mannich base inhibitor, ZL006 (Sigma-Aldrich). The AcrIIA2 and GFP proteins were obtained from E. coli cells transformed with the AcrIIA2- and GFP-expression plasmids (see example 1.2 and 1.3).

[1] = biphenyl analogues, 80µM or 200µM, Figure 5
[2] = ACM37 and pyrrolylthiazole analogues, 200µM or 500µM, Figure 4

T1 sequence (Q99ZW2 whole entry, one chain of several): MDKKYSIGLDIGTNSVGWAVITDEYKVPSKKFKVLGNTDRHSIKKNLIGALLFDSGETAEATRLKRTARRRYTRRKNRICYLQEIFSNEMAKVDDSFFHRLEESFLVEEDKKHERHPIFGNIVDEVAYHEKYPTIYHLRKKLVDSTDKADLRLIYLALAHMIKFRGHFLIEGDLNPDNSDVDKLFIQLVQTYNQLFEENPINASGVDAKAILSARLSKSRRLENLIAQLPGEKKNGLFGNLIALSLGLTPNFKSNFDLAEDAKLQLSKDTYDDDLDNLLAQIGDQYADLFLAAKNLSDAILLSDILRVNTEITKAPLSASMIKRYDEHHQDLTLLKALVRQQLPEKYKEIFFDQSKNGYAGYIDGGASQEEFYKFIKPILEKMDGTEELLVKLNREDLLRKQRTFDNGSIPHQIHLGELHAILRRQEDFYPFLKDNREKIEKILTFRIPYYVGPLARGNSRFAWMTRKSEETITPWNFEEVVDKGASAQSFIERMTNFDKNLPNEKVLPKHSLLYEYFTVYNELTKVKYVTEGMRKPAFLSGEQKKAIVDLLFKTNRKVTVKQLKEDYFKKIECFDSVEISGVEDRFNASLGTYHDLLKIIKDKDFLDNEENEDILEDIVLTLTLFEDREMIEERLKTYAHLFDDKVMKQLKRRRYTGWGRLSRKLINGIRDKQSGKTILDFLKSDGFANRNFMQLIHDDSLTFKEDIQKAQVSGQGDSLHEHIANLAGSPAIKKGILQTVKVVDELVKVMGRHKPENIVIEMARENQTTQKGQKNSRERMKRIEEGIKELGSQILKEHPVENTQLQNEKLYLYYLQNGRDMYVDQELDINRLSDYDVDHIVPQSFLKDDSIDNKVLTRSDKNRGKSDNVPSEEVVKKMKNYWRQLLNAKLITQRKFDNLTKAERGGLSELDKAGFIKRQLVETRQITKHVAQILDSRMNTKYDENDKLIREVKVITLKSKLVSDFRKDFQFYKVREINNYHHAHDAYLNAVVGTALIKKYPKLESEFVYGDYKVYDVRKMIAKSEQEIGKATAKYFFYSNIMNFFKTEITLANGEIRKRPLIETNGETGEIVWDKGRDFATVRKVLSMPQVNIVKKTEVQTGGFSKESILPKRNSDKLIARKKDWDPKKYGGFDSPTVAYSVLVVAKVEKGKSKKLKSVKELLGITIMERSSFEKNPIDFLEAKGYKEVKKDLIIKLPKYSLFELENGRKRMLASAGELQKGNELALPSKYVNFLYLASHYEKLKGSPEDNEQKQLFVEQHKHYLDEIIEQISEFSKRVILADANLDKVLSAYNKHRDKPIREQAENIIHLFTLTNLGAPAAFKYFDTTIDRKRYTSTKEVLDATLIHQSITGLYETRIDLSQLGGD

Row | Structure (SMILES) | inhibitors of spCas9:gRNA mediated target DNA cleavage [1] | inhibitors of spCas9:gRNA mediated target DNA cleavage [2] | also measured
1 | Cc1cc(NS(=O)(=O)c2ccc(-c3cccc(C(=O)N4CCC(C)CC4)c3)cc2)no1 [ACM37-A17, N-(5-Methylisoxazol-3-yl)-3'-(4-methylpiperidine-1-carbonyl)-[1,1'-biphenyl]-4-sulfonamide] | inhibitors |  | 
2 | CC1CCN(C(=O)c2cccc(-c3ccccc3)c2)CC1 [ACM37-A17c, [1,1'-Biphenyl]-3-yl(4-methylpiperidin-1-yl)methanone] | inhibitors |  | relative potency as inhibitor of spCas9:gRNA mediated target DNA cleavage (Figure 5, printed order: ACM37-A17c, then ACM37-A17, ACM37-A17p, ACM37-A17a, ACM37-A17n, ACM37-A17f): most potent
3 | O=S(=O)(Nc1ccon1)c1ccc(-c2ccccc2)cc1 [ACM37-A17n, N-(Isoxazol-3-yl)-[1,1'-biphenyl]-4-sulfonamide] | inhibitors |  | 
4 | CC1CCN(C(=O)c2cccc(-c3ccc(S(=O)(=O)Nc4ccon4)cc3)c2)CC1 [ACM37-A17a, N-(Isoxazol-3-yl)-3'-(4-methylpiperidine-1-carbonyl)-[1,1'-biphenyl]-4-sulfonamide] | inhibitors |  | 
5 | Cc1nc(-c2cc(S(=O)(=O)Nc3ccon3)cn2C)sc1C(=O)N1CCC(C)CC1 [ACM37-A23a, N-(isoxazol-3-yl)-1-methyl-5-(4-methyl-5-(4-methylpiperidine-1-carbonyl)thiazol-2-yl)-1H-pyrrole-3-sulfonamide] |  | most potent inhibitors | 
6 | Cc1cc(NS(=O)(=O)c2ccc(-c3ccccc3)cc2)no1 [ACM37-A17f, N-(5-Methylisoxazol-3-yl)-[1,1'-biphenyl]-4-sulfonamide] | inhibitors |  | 
7 | Cc1cc(NS(=O)(=O)c2cccc(-c3ccccc3)c2)no1 [ACM37-A17p, N-(5-Methylisoxazol-3-yl)-[1,1'-biphenyl]-3-sulfonamide] | inhibitors |  | 
8 | Cc1cc(NS(=O)(=O)c2cc(-c3nc(C)c(C(=O)N4CCCCC4)s3)n(C)c2C)no1 [ACM37-A19, 1,2-Dimethyl-5-(4-methyl-5-(piperidine-1-carbonyl)thiazol-2-yl)-N-(5-methylisoxazol-3-yl)-1H-pyrrole-3-sulfonamide] |  | most potent inhibitors | 
9 | Cc1cc(NS(=O)(=O)c2cc(-c3nc(C)c(C(=O)N4CCC(C)CC4)s3)n(C)c2C)no1 [ACM37, 1,2-Dimethyl-5-(4-methyl-5-(4-methylpiperidine-1-carbonyl)thiazol-2-yl)-N-(5-methylisoxazol-3-yl)-1H-pyrrole-3-sulfonamide] |  | most potent inhibitors | inhibitor of cleavage of a target DNA molecule by the spCas9:gRNA complex (re-screen of the 52 candidate compounds, 50∼500µM, Figure 3): most potent and specific inhibitor
10 | Cc1cc(NS(=O)(=O)c2cc(-c3nc(C)c(C(=O)N4CCC(C)CC4)s3)n(C)c2)no1 [ACM37-A13] |  | most potent inhibitors | 
11 | Cc1cc(NS(=O)(=O)c2cc(-c3nc(C)c(C(=O)N4CCCCCC4)s3)n(C)c2C)no1 [ACM37-A10, 5-(5-(Azepane-1-carbonyl)-4-methylthiazol-2-yl)-1,2-dimethyl-N-(5-methylisoxazol-3-yl)-1H-pyrrole-3-sulfonamide] |  | most potent inhibitors | 
